Values of other authors as cited in US10828268B2 (priority 2013, dated 2020).

Settings: human, taken orally

COc1cc(/C=C/C(=O)CC(=O)/C=C/c2ccc(O)c(OC)c2)ccc1O [curcumin]
oral bioavailability: poorly bioavailable
